Experiments:
Type in all cases: biochemical
[1] = target: T1, trypsin (Bos taurus, UniProt P00760); assay: Inhibitory activity for trypsin; details: FXa versus trypsin
T1 construct: gene PRSS1
T1 sequence (P00760 24-246): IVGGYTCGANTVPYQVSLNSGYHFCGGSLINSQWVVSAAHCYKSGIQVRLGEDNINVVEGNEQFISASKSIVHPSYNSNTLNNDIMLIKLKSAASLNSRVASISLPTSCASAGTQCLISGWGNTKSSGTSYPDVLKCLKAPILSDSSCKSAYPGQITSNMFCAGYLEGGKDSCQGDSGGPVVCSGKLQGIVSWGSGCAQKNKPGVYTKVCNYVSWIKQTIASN

[2] = target: T2, human FXa (Homo sapiens, UniProt P00742); assay: Measurement of human FXa inhibitory action (chromogenic substrate S-2222); details: human FXa 0.019 U/ml, S-2222 0.4 mM, 37° C., pH 7.5
T2 construct: purchased Enzyme Research Laboratories, Inc
Description: In vitro FXa inhibitory activity is measured in accordance with the method of Kettner et al. (Journal of Biological Chemistry, vol. 265, pages 18289 to 18297, 1990). To be more specific, human FXa (product of Enzyme Research Laboratories, Inc., 0.019 U/ml) is mixed with a test compound diluted with dimethylsulfoxide (DMSO) at various concentrations and a synthetic substrate S-2222 (Chromogenix AB, 0.4 mM). The mixtures are incubated at 37° C. in Tris-hydrochloric acid buffer (pH 7.5) while the absorbance at 405 nm is measured continuously. To calculate the FXa inhibitory activity of the test compound, the initial reaction velocity is compared with the value for a control containing no test compound. It should be noted that the FXa inhibitory activity of the test compound is generally indicated as IC50.

[3] = system: human plasma; assay: Measurement of intrinsic coagulation time (APTT) in vitro
Description: Activated partial thromboplastin time (APTT) is measured in the presence of the test compounds diluted at various concentrations. A test compound diluted with DMSO at various concentrations is mixed with human plasma and APTT reagent. The mixture is incubated at 37° C. for 2 minutes; calcium chloride (25 mM) is added to the mixture; and the coagulation time is thereafter measured. It should be noted that the anticoagulant activity of the test compound is described in terms of the concentration required to double the coagulation time for the case where no test compound is added.

T2 sequence (P00742 235-488 limits assumed): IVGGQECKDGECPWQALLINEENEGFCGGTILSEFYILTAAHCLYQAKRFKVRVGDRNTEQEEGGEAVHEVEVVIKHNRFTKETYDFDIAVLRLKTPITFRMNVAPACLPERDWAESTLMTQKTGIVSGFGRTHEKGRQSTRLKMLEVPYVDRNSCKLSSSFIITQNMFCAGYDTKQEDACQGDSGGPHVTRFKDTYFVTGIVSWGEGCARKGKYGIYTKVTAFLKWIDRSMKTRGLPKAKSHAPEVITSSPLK
T2 sequence (P00742 41-179 partner limits assumed): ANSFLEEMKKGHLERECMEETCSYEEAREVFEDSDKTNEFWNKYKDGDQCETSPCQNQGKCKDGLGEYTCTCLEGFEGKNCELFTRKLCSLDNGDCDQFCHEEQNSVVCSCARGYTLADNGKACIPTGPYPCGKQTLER

SMILES	selectivity for trypsin [1]	IC50 [2] [nM]	Concentration required to double coagulation time [3] [µM]
COCC12CN(S(=O)(=O)c3ccc4cc(Cl)ccc4c3)CC(=O)N1CC1(CCN(c3ccncc3)CC1)O2 (single isomer, unassigned; (-)) [Compound A, (−)-1,4-diaza-4-(6-chloronaphthalen-2-ylsulfonyl)-6-(methoxymethyl)-7-oxa-1′-(4-pyridyl)spiro[bicyclo[4.3.0]nonane-8,4′-piperidin]-2-one]	remarkably high selectivity	–	–
O=C(O)COCC12CN(S(=O)(=O)c3ccc4cc(Cl)ccc4c3)CC(=O)N1CC1(CCN(c3ccncc3)CC1)O2 (stereo not drawn) [Example 5, 1,4-Diaza-4-(6-chloronaphthalen-2-ylsulfonyl)-6-(carboxymethoxymethyl)-7-oxa-1′-(4-pyridyl)spiro[bicyclo[4.3.0]nonane-8,4′-piperidin]-2-one]	–	2.9	0.43
O=C1CN(S(=O)(=O)c2ccc3nc(Cl)ccc3c2)CC2OC3(CCN(c4ccncc4)CC3)CN12 (stereo not drawn) [Example 760, 1,4-Diaza-4-(2-chloroquinolin-6-ylsulfonyl)-7-oxa-1′-(4-pyridyl)spiro[bicyclo[4.3.0]nonane-8,4′-piperidin]-2-one]	–	5.9	–
O=C1CN(S(=O)(=O)c2ccc3cc(Cl)ccc3c2)CC2NC3(CCN(c4ccncc4)CC3)CN12 (stereo not drawn) [Example 765, 1,4,7-Triaza-4-(6-chloronaphthalen-2-ylsulfonyl)-1′-(4-pyridyl)spiro[bicyclo[4.3.0]nonane-8,4′-piperidin]-2-one]	–	5.7	–
COCC12CN(S(=O)(=O)c3ccc4nc(Cl)ccc4c3)CC(=O)N1CC1(CCN(c3ccncc3)CC1)O2 (stereo not drawn) [Example 770, 1,4-Diaza-4-(2-chloroquinolin-6-ylsulfonyl)-6-(methoxymethyl)-7-oxa-1′-(4-pyridyl)spiro[bicyclo[4.3.0]nonane-8,4′-piperidin]-2-one]	–	1.8	–
